This note sets out measurements from patent US20090156594A1, “HETEROCYCLIC KINASE MODULATORS” (SGX Pharmaceuticals, Inc., priority 2007, published 2009).

A value given as a limit tells only on which side of the number the result lay.

What is called IC50 is the concentration that inhibits the measured activity by half. Read a low IC50 as greater potency.

Experiment [1] addresses T1, c-MET (Homo sapiens, UniProt P08581).
T1 construct: expressing the kinase domain of human Met; 6x Histidine tag (TEV-cleavable) (cleaved yes); made in house; host or cells: Sf9 insect cells
Nature of the experiment: MET luminescence-based enzyme assay (Kinase-Glo). It is filed as biochemical. The following applies: MET kinase domain, 10 μM ATP, 60 min at 21° C. On the procedure:
Screening data was evaluated using the equation: Z′=1-[3*(σ++σ−)/|μ+−μ−|] […] The subscript designates positive or negative controls. The Z′ score for a robust screening assay should be ≧0.50. The typical threshold=μ+−3*σ+. Any value that falls below the threshold was designated a “hit”.
MET Luminescence-Based Enzyme Assay
MET kinase (see below), Kinase-Glom (Promega Cat#V6712).
(diluted 50 μl into total of 10 ml miliQH2O daily=50 μM ATP working stock); 1% BSA (1 g BSA in 100 ml 0.1M HEPES, pH 7.5, stored at −20° C.), 100 mM MgCl2; 200 μM Staurosporine, 2× Kinase-Glo™ reagent (made fresh or stored at −20° C.).
Standard Assay Setup for 384-well format (20 μl kinase reaction, 40 μl detection reaction): 10 mM MgCl2; 0.3 mg/mil poly Glu-Tyr; 0.1% BSA; 1 μl test compound (in DMSO); 0.4 μg/ml MET kinase; 10 μM ATP; 100 mM HEPES buffer. Positive controls contained DMSO with no test compound. Negative controls contained […] staurosporine. The kinase reactions were initiated at time t=0 by the addition of ATP. Kinase reactions were incubated at 21° C. for 60 min, then 20 μl of Kinase-Glo™ reagent were added to each well to quench the kinase reaction and initiate the luminescence reaction. After a 20 min incubation at 21° C., the luminescence was detected in a plate-reading luminometer.
The cell pellets produced from half of a 12 L Sf9 insect cell culture expressing the kinase domain of human Met were resuspended in a buffer containing 50 mM Tris-HCl pH 7.7 and 250 mM NaCl, in a volume of approximately 40 ml per 1 L of original culture. […] The suspension was stirred for 1 hour at 4° C. Debris was removed by centrifugation for 30 minutes at 39,800×g at 4° C. […] The sample was then poured into a drip column at 4° C. and washed with 10 column volumes of 50 mM Tris-HCl pH 7.8, 500 mM NaCl, 10% Glycerol, […], and 10 mM Methionine. The protein was eluted using a step gradient with two column volumes each of the same buffer containing 50 mM, 200 mM, and 500 mM Imidazole, sequentially. […] The step gradient was run with 15% and then 80% of the B-side (A-side=50 mM Tris-HCl pH 7.8, 500 mM NaCl, 10% Glycerol, 10 mM Imidazole, and 10 mM Methionine; B-side=50 mM Tris-HCl pH 7.8, […], 10% Glycerol, 500 mM Imidazole, and 10 mM Methionine) for 4 column volumes each.
For orientation: Kinase-Glo measures the ATP left after a reaction by luminescence.

For experiment [2], the system named is GTL16 cells. Briefly: 96-well XTT cell survival assay (GTL16 cells). It is filed as cell-based. The following applies: Homo sapiens, GTL 16, 72 hours. The procedure:
GTL16 cells were maintained in DMEM Medium supplemented with 10% fetal bovine serum (FBS) 2 mM L-Glutamine and 100 units penicillin/100 μg streptomycin, at 37° C. in 5% CO2.
Compounds were Tested in the Following Assays in Duplicate.
96-well XTT assay (GTL16 cells): One day prior to assay the growth media was aspirated off and assay media was added to cells. On the day of the assay, the cells were grown in assay media containing various concentrations of compounds (duplicates) on a 96-well flat bottom plate for 72 hours at 37° C. in 5% CO2. The starting cell number was 5000 cells per well and volume was 120 μl. At the end of the 72-hour incubation, 40 μl of XTT labeling mixture (50:1 solution of sodium 3′-[1-(phenylaminocarbonyl)-3,4-tetrazolium]-bis(4-methoxy-6-nitro) benzene sulfonic acid hydrate and Electron-coupling reagent: PMS (N-methyl dibenzopyrazine methyl sulfate) were added to each well of the plate. After an additional 5 hours of incubation at 37° C., the absorbance reading at 450 nm with a background correction of 650 nm was measured with a spectrophotometer.
On the technique in general: Tetrazolium dyes change colour on reduction, which living cells bring about.

T1 sequence (P08581 1078-1345 limits assumed): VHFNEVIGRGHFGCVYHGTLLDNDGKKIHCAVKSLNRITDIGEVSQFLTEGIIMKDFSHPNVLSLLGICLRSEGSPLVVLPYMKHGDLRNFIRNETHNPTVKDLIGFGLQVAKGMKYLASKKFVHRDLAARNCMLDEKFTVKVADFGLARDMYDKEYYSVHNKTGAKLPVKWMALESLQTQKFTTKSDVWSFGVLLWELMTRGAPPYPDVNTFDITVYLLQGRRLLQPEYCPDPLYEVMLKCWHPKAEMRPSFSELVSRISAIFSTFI

As for `c1ccc(-c2nn3c(Cc4ccc5ncccc5c4)nnc3s2)cc1`, the IC50 was less than 100 nM in experiment [1] and 1000 to 10000 nM in experiment [2]. Take `Cn1cc(-c2nn3c(Cc4cc5cccnc5cc4F)nnc3s2)cn1`: the IC50 in experiment [1] was less than 100 nM; in experiment [2] it was no more than 100 nM.

Take `Cn1cc(-c2nn3c(Cc4c(F)cc5ncccc5c4F)nnc3s2)cn1`: the IC50 in experiment [1] was less than 100 nM; in experiment [2] it was no more than 100 nM. In experiment [1], `Fc1cc2ncccc2cc1Cc1nnc2sc(C(F)(F)F)nn12` gave an IC50 of 1000 to 10000 nM. For the compound `c1ccc(-c2cn3c(Sc4ccc5ncccc5c4)nnc3s2)cc1`, the values for the IC50 in experiment [1] and in experiment [2] were 100 to 1000 nM and 1000 to 10000 nM, respectively.

As for `Cc1nn2c(Cc3cc4cccnc4cc3F)nnc2s1`, the IC50 in experiment [1] and in experiment [2] was 100 to 1000 nM throughout. For the compound `Fc1cc2ncccc2cc1Cc1nnc2sc(-c3ncc[nH]3)nn12`, the IC50 was in the range of 100 to 1000 nM in experiment [1] and 1000 to 10000 nM in experiment [2]. For `Cc1nn2c(Cc3ccc4ncc(-c5cnn(C)c5)cc4c3)nnc2s1` the same measures were less than 100 nM and no more than 100 nM. As to `Cc1nn2c(Sc3ccc4ncccc4c3)nnc2s1`, the IC50 in experiment [1] fell in the range of 100 to 1000 nM. In the case of `Cn1cc(-c2cnc3ccc(Cc4nnc5sc(CNCC6CC6)nn45)cc3c2)cn1`, the IC50 is less than 100 nM in experiment [1] and no more than 100 nM in experiment [2]. Turning to `Cc1nn2c(Cc3ccc4ncc(-c5cnn(C)c5)cc4c3F)nnc2s1`, the results for the IC50 in experiment [1] and in experiment [2] were less than 100 nM and no more than 100 nM, respectively. For the compound `Cc1nn2c(Cc3c(F)cc4ncc(Br)cc4c3F)nnc2s1`, the IC50 in experiment [1] and in experiment [2] was 100 to 1000 nM in each case. In the case of `Cc1nn2c(Sc3ccc4ncc(-c5cnn(C)c5)cc4c3)nnc2s1`, the IC50 in experiment [1] is less than 100 nM; in experiment [2] it was no more than 100 nM.

As for `Cn1cc(-c2cnc3ccc(Cc4nnc5sc([C@@H](N)CC6CCCCC6)nn45)cc3c2)cn1`, the IC50 in experiment [1] lay in the range of 100 to 1000 nM. In turn, `C[C@H](N)c1nn2c(Cc3ccc4ncc(-c5cnn(C)c5)cc4c3)nnc2s1` gave an IC50 in experiment [1] of 100 to 1000 nM. As for `Cn1cc(-c2cnc3ccc(Cc4nnc5sc(C6CC6)nn45)cc3c2)cn1`, the IC50 is less than 100 nM in experiment [1] and no more than 100 nM in experiment [2].

For `Cn1cc(-c2cnc3ccc(Cc4nnc5sc([C@@H]6CCCN6)nn45)cc3c2)cn1`, the IC50 in experiment [1] is 100 to 1000 nM.

As to `Cn1cc(-c2cnc3ccc(Cc4nnc5sc(CNCCF)nn45)cc3c2)cn1`, the IC50 in experiment [1] is less than 100 nM; in experiment [2], no more than 100 nM. Take `Cn1cc(-c2cnc3ccc(Cc4nnc5sc(CNCCN6CCOCC6)nn45)cc3c2)cn1`: the IC50 in experiment [1] is less than 100 nM; in experiment [2], 100 to 1000 nM. For `CCc1nn2c(Cc3ccc4ncc(-c5cnn(C)c5)cc4c3)nnc2s1` the same measures were less than 100 nM and no more than 100 nM. With `CNCc1nn2c(Cc3ccc4ncc(-c5cnn(C)c5)cc4c3)nnc2s1`, the IC50 was less than 100 nM in experiment [1] and no more than 100 nM in experiment [2]. Regarding `Brc1cnc2ccc(Cc3nnc4sc(CN5CCCC5)nn34)cc2c1`, in experiment [1], the IC50 was 100 to 1000 nM. Regarding `CCc1nn2c(Sc3ccc4ncc(-c5cnn(C)c5)cc4c3)nnc2s1`, the IC50 in experiment [1] was less than 100 nM; in experiment [2], 100 to 1000 nM. For `COCc1nn2c(Cc3ccc4ncc(-c5cnn(C)c5)cc4c3)nnc2s1` the same measures were less than 100 nM and no more than 100 nM. For `CN(C)Cc1nn2c(Cc3ccc4ncc(-c5cnn(C)c5)cc4c3)nnc2s1` the same measures were less than 100 nM and no more than 100 nM. For `Cn1cc(-c2cnc3ccc(Cc4nnc5sc(CNC6CC6)nn45)cc3c2)cn1` the same measures were less than 100 nM and no more than 100 nM. `CC(C)NCc1nn2c(Cc3ccc4ncc(-c5cnn(C)c5)cc4c3)nnc2s1`: the results for the IC50 in experiment [1] and in experiment [2] were less than 100 nM and no more than 100 nM, respectively.

`Cn1cc(-c2cnc3ccc(Cc4nnc5sc(CNCCO)nn45)cc3c2)cn1`: the IC50 in experiment [1] was less than 100 nM; in experiment [2], 100 to 1000 nM.

With `C[C@@H](O)[C@@H](N)c1nn2c(Cc3ccc4ncc(-c5cnn(C)c5)cc4c3)nnc2s1`, the IC50 in experiment [1] was in the range of 1000 to 10000 nM.

`C[C@@H](N)c1nn2c(Cc3ccc4ncc(-c5cnn(C)c5)cc4c3)nnc2s1`: the IC50 in experiment [1] was less than 100 nM; in experiment [2], 100 to 1000 nM. `Cn1cc(-c2cnc3ccc(Cc4nnc5sc(C(N)Cc6cncn6C)nn45)cc3c2)cn1` (centres unmarked) came in with an IC50 in experiment [1] of 100 to 1000 nM. With `CN[C@H](C)c1nn2c(Cc3ccc4ncc(-c5cnn(C)c5)cc4c3)nnc2s1`, the IC50 in experiment [1] and in experiment [2] was 100 to 1000 nM in each case. Take `Cn1cc(-c2cnc3ccc(Cc4nnc5sc([C@H](N)CC6CCCCC6)nn45)cc3c2)cn1`: the half-maximal inhibitory concentration (IC50) in experiment [1] was less than 100 nM; in experiment [2], 100 to 1000 nM. Turning to `Cn1cc(-c2cnc3ccc(Cc4nnc5sc(C6CCC6)nn45)cc3c2)cn1`, the IC50 in experiment [1] was less than 100 nM; in experiment [2] it was no more than 100 nM. `Cn1cc(-c2cnc3ccc(Cc4nnc5sc(CNCC(F)(F)F)nn45)cc3c2)cn1`: the IC50 is less than 100 nM in experiment [1] and no more than 100 nM in experiment [2]. For `CCNCc1nn2c(Cc3ccc4ncc(-c5cnn(C)c5)cc4c3)nnc2s1` the same measures were less than 100 nM and 100 to 1000 nM. In experiment [1], `Cn1cc(-c2cnc3ccc(Cc4nnc5sc([C@@H](N)CC6CC6)nn45)cc3c2)cn1` gave an IC50 of less than 100 nM.

Regarding `CS(=O)(=O)c1cccc(-c2cnc3nnc(Cc4ccc5ncccc5c4)n3c2)c1`, in experiment [1], the IC50 is greater than 10000 nM.

As for `NCc1ccc(-c2cnc3nnc(Cc4ccc5ncccc5c4)n3c2)cc1`, the IC50 in experiment [1] was greater than 10000 nM. With `Cc1nn2c(Cc3c(F)cc4ncc(-c5cnn(C)c5)cc4c3F)nnc2s1`, the IC50 was less than 100 nM in experiment [1] and no more than 100 nM in experiment [2]. Take `COCCc1nn2c(Sc3ccc4ncc(-c5cnn(C)c5)cc4c3)nnc2s1`: the IC50 was less than 100 nM in experiment [1] and no more than 100 nM in experiment [2]. As to `CN(C)Cc1nn2c(Cc3c(F)cc4ncc(Br)cc4c3F)nnc2s1`, the IC50 in experiment [1] is 1000 to 10000 nM. Regarding `OCc1nn2c(Cc3ccc4ncc(Br)cc4c3)nnc2s1`, the IC50 in experiment [1] was greater than 10000 nM.

`Cn1cc(-c2cnc3ccc(Cc4nnc5nccnn45)cc3c2)cn1` [3-(1-Methyl-1H-pyrazol-4-yl)-6-[1,2,4]triazolo[4,3-b][1,2,4]triazin-3-ylmethyl-quinoline]: the IC50 in experiment [1] was less than 100 nM; in experiment [2], no more than 100 nM. For the compound `c1ccc(-c2cn3c(Cc4ccc5ncccc5c4)nnc3s2)cc1` [6-(6-Phenyl-thiazolo[2,3-c][1,2,4]triazol-3-ylmethyl)-quinoline], the IC50 in experiment [1] was in the range of 1000 to 10000 nM. `Cn1cc(-c2nn3c(Cc4ccc5ncccc5c4)cnc3s2)cn1` [6-[2-(1-methyl-1H-pyrazol-4-yl)-imidazo[2,1-b][1,3,4]thiadiazol-5-ylmethyl]-quinoline]: the IC50 in experiment [1] is less than 100 nM; in experiment [2], 100 to 1000 nM. `Cn1cc(-c2nn3c(Cc4ccc5ncccc5c4)nnc3s2)cn1` [6-[6-(1-Methyl-1H-pyrazol-4-yl)-[1,2,4]triazolo[3,4-b][1,3,4]thiadiazol-3-ylmethyl]-quinoline] returned an IC50 in experiment [2] of 100 to 1000 nM. On to `Cn1cc(-c2nn3c(Sc4ccc5ncccc5c4)nnc3s2)cn1` [6-[6-(1-Methyl-1H-pyrazol-4-yl)-[1,2,4]triazolo[3,4-b][1,3,4]thiadiazol-3-ylsulfanyl]-quinoline], for which the IC50 was less than 100 nM in experiment [1] and 100 to 1000 nM in experiment [2]. `Cn1cc(-c2cnc3ccc(Cc4nnc5sc(-c6cccnc6)nn45)cc3c2)cn1` [drawing 184] came in with an IC50 in experiment [2] of no more than 100 nM. As for `Cn1cc(-c2cnc3ccc(Cc4nnc5sc(-c6cccnc6)nn45)cc3c2)cn1` [drawing 217], the IC50 in experiment [1] was less than 100 nM.
